≈ marks a conversion by molar mass, not a printed value. Where two headings read alike, the source gives them in different places. Each block holds one compound with its values, some of them ahead of it.
Key:
Assay in all cases: MIC (Minimum Inhibitory Concentration)
Type in all cases: cell-based
[1] = test system: Bacillus subtilis; settings: ATCC6633; Bacillus subtilis ATCC 6633
[2] = test system: Candida albicans
[3] = test system: Diplococcus pneumoniae; settings: Streptococcus pneumoniae; Diplococcus pneumoniae A 2783
[4] = test system: Fusarium (bulb); settings: Fusarium (bulb) A 3252
[5] = test system: Fusarium (tulip); settings: Fusarium (tulip) A 3253
[6] = test system: Fusarium solani; settings: Fusarium solani A 3245; read-out: MIC values
[7] = test system: Pasteurella multocida; settings: Pasteurella multocida A 723; read-out: MIC values
[8] = test system: Proteus morganii; settings: Morganella morganii; Proteus morganii 2241
[9] = test system: Rhizoctonia solani; settings: Rhizoctonia solani 200-25; read-out: MIC values
[10] = test system: Staphylococcus aureus
[11] = test system: Streptococcus haemolyticus; settings: Streptococcus haemolyticus A 1088; read-out: MIC values
[12] = test system: Trichophyton equinum
[13] = test system: Trichophyton mentagrophytus
[14] = test system: Trichophyton quickeaneum; settings: Trichophyton quickeaneum A 2040; read-out: MIC values
[15] = test system: Trichophyton rubrum
[16] = test system: Trichophyton schoenleinii; settings: Trichophyton schoenleinii 435-63; read-out: MIC values
[17] = test system: Trichophyton soudanese joyeux; settings: Trichophyton soudanese joyeux 440-63; read-out: MIC values
[18] = test system: Trichophyton tonsurans; settings: Trichophyton tonsurans 561-50; read-out: MIC values
[19] = test system: Trichophyton verrucosum
[20] = test system: Trichophyton violoceum; settings: Trichophyton violoceum 442-62; read-out: MIC values
[21] = Candida albicans A 7, read-out: MIC values
[22] = Candida albicans A 3140, read-out: MIC values
[23] = Candida albicans A 3141, read-out: MIC values
[24] = Candida albicans A 3142, read-out: MIC values
[25] = Candida albicans A 3143, read-out: MIC values
[26] = Candida albicans A 3144, read-out: MIC values
[27] = Candida albicans A 3145, read-out: MIC values
[28] = Candida albicans A 3165, read-out: MIC values
[29] = Candida albicans A 3166, read-out: MIC values
[30] = Candida albicans A 3167, read-out: MIC values
[31] = Candida albicans A 3168, read-out: MIC values
[32] = Candida albicans A 3169, read-out: MIC values
[33] = Candida albicans A 3171, read-out: MIC values
[34] = Candida albicans A 3184, read-out: MIC values
[35] = Candida albicans A 3190, read-out: MIC values
[36] = Candida albicans A 3191, read-out: MIC values
[37] = Candida albicans A 3192, read-out: MIC values
[38] = Candida albicans A 3194, read-out: MIC values
[39] = Candida albicans A 3196, read-out: MIC values
[40] = Trichophyton equinum 441-51, read-out: MIC values
[41] = Trichophyton equinum 856-71, read-out: MIC values
[42] = Trichophyton mentagrophytus 367-68, read-out: MIC values
[43] = Trichophyton mentagrophytus 421-67, read-out: MIC values
[44] = Trichophyton mentagrophytus A 3252, read-out: MIC values
[45] = Trichophyton mentagrophytus R 177, read-out: MIC values
[46] = Trichophyton mentagrophytus R 178, read-out: MIC values
[47] = Trichophyton mentagrophytus RRL 305, read-out: MIC values
[48] = Trichophyton rubrum 218-65, read-out: MIC values
[49] = Trichophyton rubrum 494-62, read-out: MIC values
[50] = Trichophyton rubrum A 810, read-out: MIC values
[51] = Trichophyton verrucosum 134-66, read-out: MIC values

SMILES: [C-]#[N+]C(=Cc1ccco1)S(=O)(=O)c1ccc(C)cc1 [Example 10, 2-(2-furyl)-1-isocyano-1-(4-toluenesulphonyl)-ethene]
- MIC [1]: 6 µg/mL (≈ 22 µM)
- MIC [2, 21]: 0.2 µg/mL (≈ 0.732 µM)
- MIC [2, 22]: 0.2 µg/mL (≈ 0.732 µM)
- MIC [2, 23]: 0.4 µg/mL (≈ 1.46 µM)
- MIC [2, 24]: 0.4 µg/mL (≈ 1.46 µM)
- MIC [2, 25]: 0.2 µg/mL (≈ 0.732 µM)
- MIC [2, 26]: 0.2 µg/mL (≈ 0.732 µM)
- MIC [2, 27]: 0.8 µg/mL (≈ 2.93 µM)
- MIC [2, 28]: 0.4 µg/mL (≈ 1.46 µM)
- MIC [2, 29]: 0.4 µg/mL (≈ 1.46 µM)
- MIC [2, 30]: 0.4 µg/mL (≈ 1.46 µM)
- MIC [2, 31]: 0.4 µg/mL (≈ 1.46 µM)
- MIC [2, 32]: 0.4 µg/mL (≈ 1.46 µM)
- MIC [2, 33]: 0.4 µg/mL (≈ 1.46 µM)
- MIC [2, 34]: 0.2 µg/mL (≈ 0.732 µM)
- MIC [2, 35]: 0.4 µg/mL (≈ 1.46 µM)
- MIC [2, 36]: 0.4 µg/mL (≈ 1.46 µM)
- MIC [2, 37]: 0.2 µg/mL (≈ 0.732 µM)
- MIC [2, 38]: 0.4 µg/mL (≈ 1.46 µM)
- MIC [2, 39]: 0.4 µg/mL (≈ 1.46 µM)
- MIC [3]: 6 µg/mL (≈ 22 µM)
- MIC [4]: 25 µg/mL (≈ 91.5 µM)
- MIC [5]: 12.5 µg/mL (≈ 45.7 µM)
- MIC [6]: 25 µg/mL (≈ 91.5 µM)
- MIC [7]: < 1.5 µg/mL
- MIC [8]: 6 µg/mL (≈ 22 µM)
- MIC [9]: 1.5 µg/mL (≈ 5.49 µM)
- MIC ([10]; Staphylococcus aureus A 321): 12.5 µg/mL (≈ 45.7 µM)
- MIC ([10]; Staphylococcus aureus A 355): 12.5 µg/mL (≈ 45.7 µM)
- MIC ([10]; Staphylococcus aureus A 2000): 12.5 µg/mL (≈ 45.7 µM)
- MIC [11]: 6 µg/mL (≈ 22 µM)
- MIC ([12]; Trichophyton equinum 182-76, read-out: MIC values): 1.5 µg/mL (≈ 5.49 µM)
- MIC [12, 40]: < 0.05 µg/mL
- MIC [12, 41]: < 0.05 µg/mL
- MIC [13, 42]: 0.1 µg/mL (≈ 0.366 µM)
- MIC [13, 43]: 1.5 µg/mL (≈ 5.49 µM)
- MIC [13, 44]: 3 µg/mL (≈ 11 µM)
- MIC [13, 45]: 1.5 µg/mL (≈ 5.49 µM)
- MIC [13, 46]: 100 µg/mL (≈ 366 µM)
- MIC [13, 47]: 0.1 µg/mL (≈ 0.366 µM)
- MIC [14]: 3 µg/mL (≈ 11 µM)
- MIC [15, 48]: 0.1 µg/mL (≈ 0.366 µM)
- MIC [15, 49]: 0.1 µg/mL (≈ 0.366 µM)
- MIC [15, 50]: < 0.05 µg/mL
- MIC [16]: 0.1 µg/mL (≈ 0.366 µM)
- MIC [17]: 6 µg/mL (≈ 22 µM)
- MIC [18]: 3 µg/mL (≈ 11 µM)
- MIC [19, 51]: 0.2 µg/mL (≈ 0.732 µM)
- MIC ([19]; Trichophyton verrucosum A 2922, read-out: MIC values): < 0.05 µg/mL
- MIC [20]: 0.1 µg/mL (≈ 0.366 µM)

- MIC [1]: 3 µg/mL (≈ 9.57 µM)
- MIC [2, 21]: 1.5 µg/mL (≈ 4.79 µM)
- MIC [2, 22]: 1.5 µg/mL (≈ 4.79 µM)
- MIC [2, 23]: 1.5 µg/mL (≈ 4.79 µM)
- MIC [2, 24]: 1.5 µg/mL (≈ 4.79 µM)
- MIC [2, 25]: 1.5 µg/mL (≈ 4.79 µM)
- MIC [2, 26]: 1.5 µg/mL (≈ 4.79 µM)
- MIC [2, 27]: 1.5 µg/mL (≈ 4.79 µM)
- MIC [2, 28]: 1.5 µg/mL (≈ 4.79 µM)
- MIC [2, 29]: 1.5 µg/mL (≈ 4.79 µM)
- MIC [2, 30]: 1.5 µg/mL (≈ 4.79 µM)
- MIC [2, 31]: 1.5 µg/mL (≈ 4.79 µM)
- MIC [2, 32]: 1.5 µg/mL (≈ 4.79 µM)
- MIC [2, 33]: 1.5 µg/mL (≈ 4.79 µM)
- MIC [2, 34]: 1.5 µg/mL (≈ 4.79 µM)
- MIC [2, 35]: 1.5 µg/mL (≈ 4.79 µM)
- MIC [2, 36]: 1.5 µg/mL (≈ 4.79 µM)
- MIC [2, 37]: 1.5 µg/mL (≈ 4.79 µM)
- MIC [2, 38]: 1.5 µg/mL (≈ 4.79 µM)
- MIC [2, 39]: 1.5 µg/mL (≈ 4.79 µM)
- MIC [3]: 6 µg/mL (≈ 19.1 µM)
- MIC [7]: 3 µg/mL (≈ 9.57 µM)
- MIC [8]: 6 µg/mL (≈ 19.1 µM)
- MIC ([10]; Staphylococcus aureus A 321): 3 µg/mL (≈ 9.57 µM)
- MIC ([10]; Staphylococcus aureus A 355): 3 µg/mL (≈ 9.57 µM)
- MIC ([10]; Staphylococcus aureus A 2000): 1.5 µg/mL (≈ 4.79 µM)
- MIC [12, 40]: 1.5 µg/mL (≈ 4.79 µM)
- MIC [12, 41]: 100 µg/mL (≈ 319 µM)
- MIC [13, 42]: 25 µg/mL (≈ 79.8 µM)
- MIC [13, 43]: 100 µg/mL (≈ 319 µM)
- MIC [13, 44]: 100 µg/mL (≈ 319 µM)
- MIC [13, 45]: 12.5 µg/mL (≈ 39.9 µM)
- MIC [13, 46]: > 100 µg/mL
- MIC [13, 47]: 25 µg/mL (≈ 79.8 µM)
- MIC [15, 48]: 25 µg/mL (≈ 79.8 µM)
- MIC [15, 49]: 100 µg/mL (≈ 319 µM)
- MIC [15, 50]: 25 µg/mL (≈ 79.8 µM)
- MIC [16]: 3 µg/mL (≈ 9.57 µM)
- MIC [17]: 6 µg/mL (≈ 19.1 µM)
- MIC [18]: 0.8 µg/mL (≈ 2.55 µM)
- MIC [19, 51]: 1.5 µg/mL (≈ 4.79 µM)
- MIC [20]: 3 µg/mL (≈ 9.57 µM)
SMILES: [C-]#[N+]C(=Cc1ccc(OC)cc1)S(=O)(=O)c1ccc(C)cc1 [Example 23, 1-isocyano-2-(4-methoxyphenyl)-1-(4-toluenesulphonyl)-ethene]
- MIC [11]: < 0.05 µg/mL
